Test results reported in patent publication US5965575A, “N-aryl piperidine compounds as 5HT1B antagonists” (Adir Et Compagnie, priority 1997, dated 1999).
Blank lines part the entries; values can stand above or below the compound they belong to.

How the values were obtained:
5-HT1A receptor = target: T1, 5-HT1A receptor (Rattus norvegicus, UniProt P19327); assay: 5-HT1A binding
T1 construct: from tissue
T1 sequence (P19327 1-422): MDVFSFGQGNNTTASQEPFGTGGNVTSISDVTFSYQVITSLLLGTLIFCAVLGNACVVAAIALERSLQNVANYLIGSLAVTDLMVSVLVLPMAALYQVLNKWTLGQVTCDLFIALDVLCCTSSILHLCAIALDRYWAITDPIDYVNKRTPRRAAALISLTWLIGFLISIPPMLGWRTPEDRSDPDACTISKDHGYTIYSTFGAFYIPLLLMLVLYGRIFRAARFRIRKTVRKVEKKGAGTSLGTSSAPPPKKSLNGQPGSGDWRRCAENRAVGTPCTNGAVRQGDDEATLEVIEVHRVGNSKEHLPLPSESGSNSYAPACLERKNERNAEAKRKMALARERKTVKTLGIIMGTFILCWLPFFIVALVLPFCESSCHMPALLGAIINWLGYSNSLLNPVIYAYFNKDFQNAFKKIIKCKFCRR
Procedure: The 5-HT1A receptor binding studies were carried out according to methods known and described in the literature (cf. S. J. Peroutka, J. Neurochem, 1986, 47, 529-40, M. J. Millan, J. Pharmacol. Exp. Ther., 1994, 268, 337-52). The results are also expressed as pKi.

5-HT1B receptor = target: T2, 5-HT1B receptor (Cavia porcellus, UniProt O08892); assay: 5-HT1B binding ([3H]-GR 125743, guinea-pig striatal membranes); conditions: [3H]-GR 125743 1 nM, guinea-pig striata membranes
T2 construct: After dissection of guinea-pig brains, the extracted striata are frozen; from tissue; host or cells: guinea-pig striatum membranes
Procedure: After dissection of guinea-pig brains, the extracted striata are frozen and then homogenised in 20 volumes (weight/volume) of 50 mM tris-HCl (pH 7.7 at room temperature) containing 4 mM CaCl2 and 0.1% ascorbic acid, and centrifuged at 48,000 g for 25 minutes at 4° C. The supernatant is separated and the precipitate is resuspended in the same volume of buffer before being incubated at 37° C. for 15 minutes in order to extract the endogenous serotonin. Finally, the suspension is centrifuged at 48,000 g for 25 minutes at 4° C. and the precipitate is resuspended in 80 volumes of buffer containing 10 μM pargyline.
The binding studies ([^3 H]-GR 125743) are carried out in triplicate in the following buffer: 50 mM tris-HCl (pH 7.7 at room temperature) containing 4 mM CaCl2, 0.1% ascorbic acid and 10 μM pargyline. […]
The data are analysed by non-linear regression using the PRISM programme (Graphpad Software Inc., San Diego, Calif.) in order to determine the Kd values (dissociation constant of the radioligand), the Bmax values (maximum number of sites) for the saturation experiments and the IC50 values (50% inhibiting concentration) and the Hill number for the competition experiments. The inhibition constant (Ki) is calculated according to the Cheng-Prussof equation : Ki =IC50 /1+L/Kd wherein L represents the concentration of the radioligand. The results are expressed as pKi =-log Ki.

5-HT1B = assay: Hypothermia test in the guinea-pig (antagonism of GR46611); format: in vivo; conditions: for ΔT ° C. (90 min) / ΔT ° C. (120 min): mean ± s.e.m.
Text: Using the hypothermia test on the guinea-pig (M. Stingle et al., J. of Psychopharmacology, 1994, 8, 14) it was possible to determine the agonist or antagonist nature of the products of the invention.
The guinea-pigs are kept in batteries of three, with free access to food and water, for one week before entering the study. One hour before each experiment, the guinea-pigs are placed in individual cages with free access to water. They are put back in their respective batteries at the end of each experiment. The temperature measurements are carried out using a digital thermometer and a rectal probe. Each guinea-pig is weighed, its base body temperature is taken and then the compound of the present invention to be evaluated is injected i.p. or p.o.
In the case of an agonist, the body temperature of each guinea-pig is taken every 30 minutes for 2 hours.
In the case of an antagonist, 15 minutes after injection each guinea-pig is injected again i.p. with the prototype agonist 5-HT1B : GR46611 (5 mg/kg/ml). The temperature is then taken every 30 minutes for 2 hours.
The criterion used for evaluation is the difference in temperature at a given time in relation to the base temperature. For each dose of product and for each time (t30, t60, t90, t120) the mean and the standard error of the mean are calculated.

[1] = system: extracellular concentration of serotonin; assay: Microdialysis experiment in rats (frontal cortex); format: in vivo; conditions: rat frontal cortex dialysate, subcutaneous route, compound alone
Text: Those tests, carried out in the frontal cortex, make it possible in the case where the products cause an increase in the release of serotonin to envisage their use for depression, impulsive disorders and obesity. If they cause a decrease in the release of serotonin they will be beneficial in the treatment of anxiety, panic attacks, sleep problems, cognitive problems and drug abuse. Finally, if they produce an increase in dopamine and/or noradrenalin, they will be beneficial in the treatment of schizophrenia and, as above, in the treatment of depression and cognitive problems.
The rats are anaesthetised with pentobarbital (60 mg/kg i.p.). […]
Simultaneous quantification of dopamine, norepinephrine and serotonin is carried out as follows: 20 μl of dialysis samples are diluted with 20 μl of mobile phase (NaH2 PO4 : 75 mM, EDTA: 20 μM, sodium dodecanesulphonate: 1 mM, methanol: 17.5%, triethylamine: 0.01%, pH: 5.70) and 33 μl are analysed by HPLC with an inverse phase column (Hypersil ODS 5 μm, C18, 150×4.6 mm, Thermo Separation Products, Les Ulis, France) thermo-statically controlled at 45° C. and quantified by way of a coulometric detector. […] The quantities of neurotransmitters are expressed as a function of the mean of the three base values. […]

[2] = 0.04 mg/kg i.p., then GR46611 5 mg/kg
[3] = 0.16 mg/kg i.p., then GR46611 5 mg/kg
[4] = injection 1 Vehicle i.p., injection 2 GR46611 5 mg/kg

T2 sequence (O08892 whole entry): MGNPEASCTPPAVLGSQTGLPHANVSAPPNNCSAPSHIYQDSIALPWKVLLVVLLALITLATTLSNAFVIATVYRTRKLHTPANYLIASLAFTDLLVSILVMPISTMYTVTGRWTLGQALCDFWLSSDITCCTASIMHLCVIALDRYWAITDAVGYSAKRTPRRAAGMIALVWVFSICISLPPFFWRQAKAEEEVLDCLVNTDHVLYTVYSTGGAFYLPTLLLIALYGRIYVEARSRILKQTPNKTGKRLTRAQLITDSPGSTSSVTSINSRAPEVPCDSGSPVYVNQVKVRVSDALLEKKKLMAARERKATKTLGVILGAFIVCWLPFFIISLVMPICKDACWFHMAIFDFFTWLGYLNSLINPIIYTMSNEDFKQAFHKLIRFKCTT

Ki (5-HT1A receptor): 3160 nM
Compound: c1ccc2c(c1)CC2CNC1CCN(c2cccc3c2OCCO3)CC1 (stereo not shown) [Example 4, N-(benzocyclobuten-1-ylmethyl)-N-[1-(2,3-dihydro[1,4]benzodioxin-5-yl)piperid-4-yl]amine]

Ki (5-HT1B receptor): 10 nM
Compound: c1cc2c(c(N3CCC(NCCC45CC6CC(CC(C6)C4)C5)CC3)c1)OCCO2 [Example 9, N-[2-(adamant-1-yl)ethyl]-N-[1-(2,3-dihydro[1,4]benzodioxin-5-yl)-piperid-4-yl]amine]

Compound: COc1cc2c(cc1OC)-c1cc(CCNC3CCN(c4cccc5c4OCCO5)CC3)cn1CC2 [Example 11, 5,6-dihydro-8,9-dimethoxy-2-{2-{[1-(2,3-dihydro[1,4]benzodioxin-5-yl)-piperid-4-ylamino]ethyl}}pyrrolo[2,1-a]isoquinoline]
ΔT ° C. (90 min) (5-HT1B; [2]): -1.10 ± 0.36 °C
ΔT ° C. (120 min) (5-HT1B; [2]): -1.43 ± 0.24 °C
ΔT ° C. (90 min) (5-HT1B; [3]): -0.57 ± 0.17 °C
ΔT ° C. (120 min) (5-HT1B; [3]): -0.67 ± 0.28 °C
agonist or antagonist nature (5-HT1B; hypothermia test, i.p. route): acts as an antagonist

Compound: COc1ccc(CNC(=O)/C=C/c2ccc3[nH]cc(CCN(C)C)c3c2)cc1 [GR46611, reference compound]
ΔT ° C. (90 min) (5-HT1B; [4]): -1.05 ± 0.13 °C
ΔT ° C. (120 min) (5-HT1B; [4]): -1.40 ± 0.36 °C
extracellular concentration of serotonin [1]: decrease in the extracellular concentration of serotonin
